This note sets out measurements from BindingDB's records for doi:10.1016/s0960-894x(01)00306-7 (Atherogenics, 2001).

Usually IC50 stands for the point on the concentration scale where inhibition reaches its midpoint. The low end stands for inhibition by little substance, the high end for a need for much substance.

This assay is described as follows: Ability to inhibit expression of Vascular cell adhesion molecule 1.
As to `CC(C)N(C(C)C)S(=O)(=O)c1ccc(Cl)c([N+](=O)[O-])c1` [4-Chloro-N,N-diisopropyl-3-nitro-benzenesulfonamide], the IC50 came out at 10 µM.

`CN(CCCN(C)S(=O)(=O)c1ccc(Cl)c([N+](=O)[O-])c1)S(=O)(=O)c1ccc(Cl)c([N+](=O)[O-])c1` [1N-{3-[4-chloro-3-nitrophenyl(methyl)sulfonamido]propyl}-1N-methyl-4-chloro-3-nitro-1-benzenesulfonamide] registered an IC50 of 6 µM.

For the compound `CN1CCN(S(=O)(=O)c2ccc(Cl)c([N+](=O)[O-])c2)CC1` [1-(4-Chloro-3-nitro-benzenesulfonyl)-4-methyl-piperazine], the half-inhibitory concentration (IC50) was 8 µM.

`O=[N+]([O-])c1cc(S(=O)(=O)N(CCO)CCO)ccc1Cl` [4-Chloro-N,N-bis-(2-hydroxy-ethyl)-3-nitro-benzenesulfonamide] came in with a 50% inhibitory concentration (IC50) of 19 µM.

With `CCOC(=O)C1CCN(S(=O)(=O)c2ccc(Cl)c([N+](=O)[O-])c2)CC1` [1-(4-Chloro-3-nitro-benzenesulfonyl)-piperidine-4-carboxylic acid ethyl ester], the 50% inhibitory concentration (IC50) came out at 8 µM.

Consider `CN(C)S(=O)(=O)c1ccc(Cl)c([N+](=O)[O-])c1` [4-Chloro-N,N-dimethyl-3-nitro-benzenesulfonamide], for which inhibition was half-maximal at 10 µM (IC50).

Compound `CNS(=O)(=O)c1ccc(Cl)c([N+](=O)[O-])c1` [4-Chloro-N-methyl-3-nitro-benzenesulfonamide] had a half-inhibitory concentration (IC50) of 11 µM.

In turn, `CCNS(=O)(=O)c1ccc(Cl)c([N+](=O)[O-])c1` [4-Chloro-N-ethyl-3-nitro-benzenesulfonamide] showed a 50% inhibitory concentration (IC50) of 15 µM.

The compound `CN(CCCCCCN(C)S(=O)(=O)c1ccc(Cl)c([N+](=O)[O-])c1)S(=O)(=O)c1ccc(Cl)c([N+](=O)[O-])c1` [1N-{6-[4-chloro-3-nitrophenyl(methyl)sulfonamido]hexyl}-1N-methyl-4-chloro-3-nitro-1-benzenesulfonamide] came in with a half-inhibitory concentration (IC50) of 30 µM. This IC50 is about 2-fold higher than that of the compound before.

Compound `CCCN(CCC)S(=O)(=O)c1ccc(Cl)c([N+](=O)[O-])c1` [4-Chloro-3-nitro-N,N-dipropyl-benzenesulfonamide] yielded an IC50 of 9 µM.

For `N#Cc1cc([N+](=O)[O-])ccc1Cl` [2-Chloro-5-nitro-benzonitrile], the IC50 came to 17 µM.

In turn, `O=C(c1ccccc1)c1ccc(Cl)c([N+](=O)[O-])c1` [(4-Chloro-3-nitro-phenyl)-phenyl-methanone] came in with an IC50 of 15 µM. This IC50 and that of the compound before are within 1.5-fold of each other.

For the compound `N#Cc1ccc(Cl)c([N+](=O)[O-])c1` [4-Chloro-3-nitro-benzonitrile], the IC50 came out at 11 µM. The IC50 values of the last two compounds are within 1.5-fold of each other.

The compound `O=C(c1ccc(Cl)c([N+](=O)[O-])c1)c1ccc(Cl)c([N+](=O)[O-])c1` [Bis-(4-chloro-3-nitro-phenyl)-methanone] gave an IC50 of 5 µM.

`O=[N+]([O-])c1cc(S(=O)(=O)N2CCCC2)ccc1Cl` [1-(4-Chloro-3-nitro-benzenesulfonyl)-pyrrolidine]: half-maximal inhibition (IC50) required 4 µM. This IC50 and that of the compound before are within 1.5-fold of each other.

Compound `CCN(C(C)C)S(=O)(=O)c1ccc(Cl)c([N+](=O)[O-])c1` [4-Chloro-N-ethyl-N-isopropyl-3-nitro-benzenesulfonamide] registered an IC50 of 15 µM.

Compound `NS(=O)(=O)c1ccc(Cl)c([N+](=O)[O-])c1` [4-Chloro-3-nitro-benzenesulfonamide] showed an IC50 of 40 µM.

The compound `O=[N+]([O-])c1cc(S(=O)(=O)c2ccc(F)c([N+](=O)[O-])c2)ccc1F` [1-fluoro-4-[(4-fluoro-3-nitrophenyl)sulfonyl]-2-nitrobenzene] had a concentration for half-maximal inhibition (IC50) of 7 µM.

Compound `N#Cc1ccc(Cl)cc1[N+](=O)[O-]` [4-Chloro-2-nitro-benzonitrile] registered a half-maximal inhibitory concentration (IC50) of 5 µM.

`CCN(CC)S(=O)(=O)c1ccc(Cl)c([N+](=O)[O-])c1` [4-Chloro-N,N-diethyl-3-nitro-benzenesulfonamide] displayed a half-inhibitory concentration (IC50) of 3 µM.

The compound `CCN(C)S(=O)(=O)c1ccc(Cl)c([N+](=O)[O-])c1` [4-Chloro-N-ethyl-N-methyl-3-nitro-benzenesulfonamide] showed a concentration for half-maximal inhibition (IC50) of 10 µM.

On to `O=[N+]([O-])c1cc(S(=O)(=O)NCc2ccccc2)ccc1Cl` [N-Benzyl-4-chloro-3-nitro-benzenesulfonamide], for which it took 18 µM to reach half-maximal inhibition (IC50). This IC50 lies about 1.8-fold higher than the previous one.

Compound `N#Cc1cc([N+](=O)[O-])c(Cl)c([N+](=O)[O-])c1` [4-Chloro-3,5-dinitro-benzonitrile] had an IC50 of 20 µM. The IC50 values of the last two compounds are within 1.5-fold of each other.

`COCCN(CCOC)S(=O)(=O)c1ccc(Cl)c([N+](=O)[O-])c1` [4-Chloro-N,N-bis-(2-methoxy-ethyl)-3-nitro-benzenesulfonamide] showed an IC50 of 5 µM.

For the compound `CCCCN(CCCC)S(=O)(=O)c1ccc(Cl)c([N+](=O)[O-])c1` [N,N-Dibutyl-4-chloro-3-nitro-benzenesulfonamide], the IC50 was 10 µM. This IC50 is about 2-fold higher than that of the compound before.

In turn, `CCCCCN(CCCCC)S(=O)(=O)c1ccc(Cl)c([N+](=O)[O-])c1` [4-Chloro-3-nitro-N,N-dipentyl-benzenesulfonamide] registered an IC50 of 7 µM.

`N#Cc1cc([N+](=O)[O-])cc([N+](=O)[O-])c1` [3,5-Dinitro-benzonitrile] displayed an IC50 of 10 µM. The IC50 values of the last two compounds are within 1.5-fold of each other.

Compound `O=Cc1ccc(Cl)c([N+](=O)[O-])c1` [4-Chloro-3-nitro-benzaldehyde] returned a 50% inhibitory concentration (IC50) of 15 µM.

As for `COC(=O)c1ccc(S(C)(=O)=O)c([N+](=O)[O-])c1` [4-Methanesulfonyl-3-nitro-benzoic acid methyl ester], half-maximal inhibition (IC50) was put at 5 µM.
